Source: patent publication US20260035722A1, “METHOD FOR LIQUEFYING AGAROSE AND PRODUCING NEOAGAROTETRAOSE/NEOAGAROHEXAOSE BY USING THERMOSTABLE GH16B BETA-AGARASE DERIVED FROM NOVEL AGAR-DEGRADING BACTERIUM” (Kyungpook National University Industry-Academic Cooperation …, priority 2022, published 2026)

What was measured:
GH16B β-agarase = assay: Agarase activity assay (DNS method): effects of metal ions, reducing agent and EDTA on enzymatic activity; format: biochemical, Cellvibrio sp. KY-GH-1; conditions: for Relative activity (%): relative to untreated control, mean ± SD (n = 3); for Effect on the enzymatic activity: 0.5 to 2.5 mM
Method: (§1) Quantitative analysis of GH16B β-agarase activity was performed using the DNS method, which detects reducing sugars released from agarose. The enzyme solution (100 μL) was mixed with an equal volume of 0.8% melted agarose in an appropriate buffer. The content of reducing sugars formed in the reaction mixture was determined colorimetrically using DNS reagent after 30 min of incubation at 50° C. The amount of enzyme that produced reducing power equivalent to 1 μmol of D-galactose per min was defined as one unit of enzymatic activity.
(§2) The optimal temperature was determined using 50 mM Tris-HCl buffer (pH 7.0) for 30 min over a temperature range of 25 to 70° C. The optimal pH was determined using 50 mM Mollvaine buffer ([…] to 7.5) and 50 mM Tris-HCl buffer (pH 7.5 to 10.0). For temperature and pH stability assays, aliquots of enzyme were preincubated at the indicated temperature and pH for the indicated time, and then the relative enzyme activity was measured under standard assay conditions (30 min, 50° C., 50 mM Tris-HCl buffer, pH 7.0). The kinetic parameters of GH16B β-agarase were determined by adding a known amount of the enzyme solution to the agarose substrate solution (1 to 5 mg/mL agarose in 50 mM Tris-HCl, pH 7.0). The Lineweaver-Burk equation, generated via GraphPad Prism 8 statistical package (GraphPad Software Inc., USA), was used to calculate Km and Vmax values. To examine the effects of metal ions, reducing agent, and chelator EDTA on enzymatic activity, various metal ions (CaCl2, CuSO4, KCl, MgCl2, MnCl2, MnSO4, and NaCl), TCEP, or EDTA were used at the indicated concentrations under standard analytical conditions.

[1] = Kinetic parameters of GH16B β-agarase (Lineweaver-Burk, DNS method); format: biochemical; conditions: for agarose
Method: as §1, §2

[2] = Method: as §1
as §2, with “The optimal temperature was determined using 50 mM Tris-HCl buffer (pH 7.0) for 30 min over a temperature range of 25 to 70° C.” left out

[3] = Substrate hydrolysis and agarose liquefaction analysed by TLC and MALDI-TOF/TOF MS; format: biochemical
Method: TLC analysis was performed for GH16B β-agarase-catalyzed hydrolysates of agarose, NAOS, or AOS on Silica Gel 60 aluminum plates, which were developed with n-butanol-ethanol-H2O [3:2:2 (v/v)]. To detect oligosaccharides, a visualization solution (containing 0.2% (w/v) naphthoresorcinol, 10% (v/v) H2SO4, ethanol) was sprayed, followed by heating at 80° C. NA2 and the NAOS standard mixture containing NA2-NA18 were used as standards.
MALDI-TOF/TOF MS was performed according to previously described methods to analyze the hydrolytic products of agarose or AOS through enzymatic reactions. The assisted laser desorption/ionization tandem time-of-flight mass spectrometry (MALDI-TOF/TOF MS) was performed in the positive ion reflectron mode using the ultraflextreme system (Bruker Daltonics). The purified reaction product was dissolved in water, 1 μL of the dissolved reaction product was spotted onto a stainless steel target plate, and 0.3 μL of 0.01 M NaCl and […] of 50 mg/mL 2,5-dihydroxybenzoic acid in 50% acetonitrile were added thereto. The spots were rapidly dried under vacuum for homogeneous crystallization. Each acquired spectrum represents the combined signal from 800 laser shots at each of 3 random locations on the spot, totaling 2,400 laser shots, using a 1-kHz laser. The laser attenuator offset and range were set at 68% and 15%, respectively, with the laser focus set at 50%. Mass spectra were recorded over an m/z range of 0 to 5,100. To obtain high-resolution data, the detector sampling rate was set at a maximum of 4.00 giga samples/s, and the detector gain was set at 4.0×. Mass spectra were externally calibrated using maltooligosaccharides isolated from commercial beer. A ladder of hexose polymers, spaced 1 hexose unit (162.053 Da) apart, provided comprehensive coverage of the entire mass acquisition range, enabling the accurate mass calibration of the MALDI-TOF/TOF MS just prior to the sample analysis. Raw MS data were processed with FlexAnalysis software (version 3.3; Bruker Daltonics). […]

[4] = Zymogram for agarase activity on LB agarose plates (Lugol's iodine); format: cell-based, E. coli BL21 (DE3) pLysS transformants; conditions: among transformants expressing GH16A, GH16B, GH16C, GH16D β-agarases
Method: E. coli BL21 (DE3) pLysS transformants harboring the recombinant pET-30a plasmid containing GH16A, GH16B, GH16C, or GH16D were spotted onto LB agarose plates (containing 1.5% agarose ((Invitrogen, Life technology, Grand Island, NY, USA), 50 μg/mL chloramphenicol, 25 μg/mL kanamycin, and 0.1 mM IPTG) and then incubated for 3 days at 37° C. The plates were stained with Lugol's at room iodine solution temperature.

Molecule: [Ca+2].[Cl-].[Cl-] [CaCl2]
- Relative activity (%) (GH16B β-agarase; 0.5 mM metal ion/chemical): 96 (±1.80) %
- Relative activity (%) (GH16B β-agarase; 1.0 mM metal ion/chemical): 110 (±6.85) %
- Relative activity (%) (GH16B β-agarase; 2.5 mM metal ion/chemical): 103 (±0.90) %
- Effect on the enzymatic activity (GH16B β-agarase): no significant effect

Molecule: O=S(=O)([O-])[O-].[Cu+2] [CuSO4]
- Relative activity (%) (GH16B β-agarase; 0.5 mM metal ion/chemical): 103 (±0.25) %
- Relative activity (%) (GH16B β-agarase; 1.0 mM metal ion/chemical): 97 (±1.45) %
- Relative activity (%) (GH16B β-agarase; 2.5 mM metal ion/chemical): 74%

Molecule: O=C(O)CN(CCN(CC(=O)O)CC(=O)O)CC(=O)O [EDTA, ethylenediamine tetraacetic acid, reference compound]
- Relative activity (%) (GH16B β-agarase; 0.5 mM metal ion/chemical): 95 (±4.75) %
- Relative activity (%) (GH16B β-agarase; 1.0 mM metal ion/chemical): 95 (±2.02) %
- Relative activity (%) (GH16B β-agarase; 2.5 mM metal ion/chemical): 91 (±4.35) %
- Effect on the enzymatic activity (GH16B β-agarase): no significant effect

Molecule: [Cl-].[K+] [KCl]
- Relative activity (%) (GH16B β-agarase; 0.5 mM metal ion/chemical): 103 (±1.20) %
- Relative activity (%) (GH16B β-agarase; 1.0 mM metal ion/chemical): 109 (±6.41) %
- Relative activity (%) (GH16B β-agarase; 2.5 mM metal ion/chemical): 104 (±3.45) %
- Effect on the enzymatic activity (GH16B β-agarase): no significant effect

Molecule: [Cl-].[Cl-].[Mg+2] [MgCl2]
- Relative activity (%) (GH16B β-agarase; 0.5 mM metal ion/chemical): 94 (±2.80) %
- Relative activity (%) (GH16B β-agarase; 1.0 mM metal ion/chemical): 107 (±0.80) %
- Relative activity (%) (GH16B β-agarase; 2.5 mM metal ion/chemical): 100 (±3.55) %
- Effect on the enzymatic activity (GH16B β-agarase): no significant effect

Molecule: [Cl][Mn][Cl] [MnCl2]
- Relative activity (%) (GH16B β-agarase; 0.5 mM metal ion/chemical): 125 (±1.40) %
- Relative activity (%) (GH16B β-agarase; 1.0 mM metal ion/chemical): 163 (±2.60) %
- Relative activity (%) (GH16B β-agarase; 2.5 mM metal ion/chemical): 155 (±3.00) %

Molecule: O=S(=O)([O-])[O-].[Mn+2] [MnSO4]
- Relative activity (%) (GH16B β-agarase; 0.5 mM metal ion/chemical): 146 (±1.95) %
- Relative activity (%) (GH16B β-agarase; 1.0 mM metal ion/chemical): 156 (±0.70) %
- Relative activity (%) (GH16B β-agarase; 2.5 mM metal ion/chemical): 156 (±1.90) %

Molecule: [Cl-].[Na+] [NaCl]
- Relative activity (%) (GH16B β-agarase; 0.5 mM metal ion/chemical): 100 (±0.30) %
- Relative activity (%) (GH16B β-agarase; 1.0 mM metal ion/chemical): 109 (±5.33) %
- Relative activity (%) (GH16B β-agarase; 2.5 mM metal ion/chemical): 101 (±2.25) %
- Effect on the enzymatic activity (GH16B β-agarase): no significant effect

Molecule: O=C(O)CCP(CCC(=O)O)CCC(=O)O [TCEP, tris(2-carboxyethyl)phosphine, reference compound]
- Relative activity (%) (GH16B β-agarase; 0.5 mM metal ion/chemical): 100 (±1.55) %
- Relative activity (%) (GH16B β-agarase; 1.0 mM metal ion/chemical): 109 (±2.85) %
- Relative activity (%) (GH16B β-agarase; 2.5 mM metal ion/chemical): 117 (±6.00) %
- Enhancement of enzymatic activity (GH16B β-agarase; 5 to 15 mM TCEP, dose-dependent, 0.8 μg/mL enzyme, 0.4% agarose, pH 7.0, 50° C., 30 min): up to 1.6 fold

B1: GH16B β-agarase: Thermostable endolytic GH16 family β-agarase (SEQ ID NO: 1, 597 aa, 63.8 kDa) from Cellvibrio sp. KY-GH-1, expressed in E. coli (protein, listed as Cellvibrio sp.)
chain: MKKITSCIAAALLLSAPLASFAADWDSVPIPAAAGTGKTWQLQSISDEFNYTASPTVKPAEFNTRWNPSFINSWTGPGDSEFNAGHSYTSGGSLALQSSAKAGTNKIYTGIISSKETFTYPLYLEARVKHTGNTLANAVWMLSADSTQEIDAMESYGSDRAGQEWFDQRMHVSHHVFIRSPFQDYQPKDEGSWVVNPAGGTWRGAMHVYGVHWKDPWNLDYYIDGVKVRTVSGPAMIDPYNFTNGTGINKPLHIIIDVEHQDWRDVRPTAAELADTSKSIMFVDWIRVYKPVTSSATSSSNSVSSSSSSLSNSSSSSATTVIDFANYFDTGKSTASVAGDTYVGFNKSGSGNINYNTAGDWADYLVTLPSDGQYKIEVTTASPMTSGIGAKLSVDGIYVSTTSLAATGGWELYSASTLANNLSIGAGTHTVRIESTGTSAWQWNGDEIRVTKVGSAPVGSPTTPAPVAMIIQAESFSATGGVYDGFKTYSVNGVSAINYNQRGDWADYAVNVAADGSYTFNAYVSSPMSGAALEVSVDGVKVLTQAVPNNGSWDSFQKVSSASKIALTKGAHTIRVTSAGTTSSTWEWNADKFELIP
- Vmax [1]: 542.0 U/mg
- kcat [1]: 576.3 s⁻¹
- Km ([1]; 50 mM Tris-HCl, pH 7.0): 14.40 mg/mL
- Optimum pH [2]: 7.0
- Optimal temperature (highest activity) ([2]; 0.4% agarose, 0.8 μg/mL enzyme, pH 7.0, 30 min): 50 °C
- Maximum activity retained ([2]; over the range of 25 to 60° C.): more than 80%
- pH stability ([2]; pH 4): rapidly became inactive
- Agarose concentration completely hydrolysed into NA4/NA6 ([3]; 1.6 μg/mL enzyme, 1 mM MnCl2, 10 mM TCEP, 50 mM Tris-HCl, pH 7.5, 50° C., 14 hours, magnetic stirring): up to 9.0%
- End products of hydrolysis ([3]; AOS substrate): NA4/NA6 but also A5
- End products of hydrolysis ([3]; agarose substrate): NA4 and NA6
- Agarose-degrading activity (bright clear zone around the colonies) [4]: highest
